Holding throughout (assay): DSF 100 kinase selectivity screen;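 note: compound tested at 20 µM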
Assay type in all cases: binding

Test [1] has as its target T1, ~100 representative kinases (Homo sapiens, UniProt Q9Y243).
T1 construct: Recombinant protein kinase domains with a concentration of 2 μM
Particulars: Protein AKT3; average of three replicates. The gist of the method:
(§1)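 Each kinase domain, at 2 μM, is mixed with 20 μM test compound and SYPRO Orange in Hepes (20 mM, pH 7.5) with 500 mM NaCl. Temperature is then raised at 3°C/min and fluorescence-monitored unfolding yields the melting temperature change, ΔTm in degrees Celsius.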

Test [2] addresses T2, ~100 representative kinases (Homo sapiens, UniProt Q99986).
T2 construct: Recombinant protein kinase domains with a concentration of 2 μM
T2 sequence (Q99986 1-396): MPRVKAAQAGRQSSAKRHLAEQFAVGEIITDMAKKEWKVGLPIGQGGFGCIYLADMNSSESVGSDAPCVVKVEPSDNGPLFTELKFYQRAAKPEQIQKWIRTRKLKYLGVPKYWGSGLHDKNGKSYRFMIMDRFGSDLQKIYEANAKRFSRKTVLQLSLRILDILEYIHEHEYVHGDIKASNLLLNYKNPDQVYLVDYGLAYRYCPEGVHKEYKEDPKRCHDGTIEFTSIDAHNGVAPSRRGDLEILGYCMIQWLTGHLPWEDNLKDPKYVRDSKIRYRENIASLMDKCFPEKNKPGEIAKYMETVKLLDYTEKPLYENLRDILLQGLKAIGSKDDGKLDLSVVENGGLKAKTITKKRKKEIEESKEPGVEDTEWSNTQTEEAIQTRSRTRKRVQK
To be noted: Protein VRK1; DSF; average of three replicates. The essentials: as §1

The target of test [3] is T3, ~100 representative kinases (Homo sapiens, UniProt Q12866).
T3 construct: Recombinant protein kinase domains with a concentration of 2 μM
T3 sequence (Q12866 21-999): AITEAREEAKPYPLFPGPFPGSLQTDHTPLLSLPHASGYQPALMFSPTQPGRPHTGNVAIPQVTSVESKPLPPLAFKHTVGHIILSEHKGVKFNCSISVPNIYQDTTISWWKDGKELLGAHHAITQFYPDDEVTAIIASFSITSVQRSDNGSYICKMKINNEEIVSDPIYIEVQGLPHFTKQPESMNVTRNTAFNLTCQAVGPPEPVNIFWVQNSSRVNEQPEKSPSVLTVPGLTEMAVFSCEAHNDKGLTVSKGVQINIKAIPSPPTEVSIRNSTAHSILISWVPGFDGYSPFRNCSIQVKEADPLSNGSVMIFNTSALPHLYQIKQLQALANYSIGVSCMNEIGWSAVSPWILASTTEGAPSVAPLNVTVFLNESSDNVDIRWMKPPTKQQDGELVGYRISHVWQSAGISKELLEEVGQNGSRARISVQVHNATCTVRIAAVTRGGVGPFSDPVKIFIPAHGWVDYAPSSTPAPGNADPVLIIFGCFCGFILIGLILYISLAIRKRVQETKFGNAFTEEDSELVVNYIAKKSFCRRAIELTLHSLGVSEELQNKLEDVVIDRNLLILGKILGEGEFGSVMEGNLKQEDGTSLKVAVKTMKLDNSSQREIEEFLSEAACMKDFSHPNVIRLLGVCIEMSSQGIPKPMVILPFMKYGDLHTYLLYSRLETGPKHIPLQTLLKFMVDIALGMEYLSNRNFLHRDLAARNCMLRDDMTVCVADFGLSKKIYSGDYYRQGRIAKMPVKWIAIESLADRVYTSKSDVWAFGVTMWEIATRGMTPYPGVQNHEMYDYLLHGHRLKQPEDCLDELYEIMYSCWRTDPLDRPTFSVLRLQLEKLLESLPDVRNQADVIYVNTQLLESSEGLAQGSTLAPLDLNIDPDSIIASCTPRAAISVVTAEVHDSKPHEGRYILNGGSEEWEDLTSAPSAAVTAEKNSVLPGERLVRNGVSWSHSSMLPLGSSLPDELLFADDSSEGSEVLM
To be noted: protein MERTK; average of three replicates. The essentials: as §1

The target of test [4] is T4, ~100 representative kinases (Homo sapiens, UniProt P68400).
T4 construct: Recombinant protein kinase domains with a concentration of 2 μM
Particulars: Protein CK2A1; average of three replicates. The essentials:
as §1

Test [5] deals with T5, ~100 representative kinases (Homo sapiens, UniProt Q9H2G2).
T5 construct: Recombinant protein kinase domains with a concentration of 2 μM
Particulars: Protein SLK; DSF; average of three replicates. The essentials: as §1

For test [6], the target named is T6, ~100 representative kinases (Homo sapiens, UniProt P34947).
T6 construct: Recombinant protein kinase domains with a concentration of 2 μM
To be noted: protein GPRK5; average of three replicates. The essentials:
as §1

T5 sequence (Q9H2G2 whole entry, the tested form may be a part): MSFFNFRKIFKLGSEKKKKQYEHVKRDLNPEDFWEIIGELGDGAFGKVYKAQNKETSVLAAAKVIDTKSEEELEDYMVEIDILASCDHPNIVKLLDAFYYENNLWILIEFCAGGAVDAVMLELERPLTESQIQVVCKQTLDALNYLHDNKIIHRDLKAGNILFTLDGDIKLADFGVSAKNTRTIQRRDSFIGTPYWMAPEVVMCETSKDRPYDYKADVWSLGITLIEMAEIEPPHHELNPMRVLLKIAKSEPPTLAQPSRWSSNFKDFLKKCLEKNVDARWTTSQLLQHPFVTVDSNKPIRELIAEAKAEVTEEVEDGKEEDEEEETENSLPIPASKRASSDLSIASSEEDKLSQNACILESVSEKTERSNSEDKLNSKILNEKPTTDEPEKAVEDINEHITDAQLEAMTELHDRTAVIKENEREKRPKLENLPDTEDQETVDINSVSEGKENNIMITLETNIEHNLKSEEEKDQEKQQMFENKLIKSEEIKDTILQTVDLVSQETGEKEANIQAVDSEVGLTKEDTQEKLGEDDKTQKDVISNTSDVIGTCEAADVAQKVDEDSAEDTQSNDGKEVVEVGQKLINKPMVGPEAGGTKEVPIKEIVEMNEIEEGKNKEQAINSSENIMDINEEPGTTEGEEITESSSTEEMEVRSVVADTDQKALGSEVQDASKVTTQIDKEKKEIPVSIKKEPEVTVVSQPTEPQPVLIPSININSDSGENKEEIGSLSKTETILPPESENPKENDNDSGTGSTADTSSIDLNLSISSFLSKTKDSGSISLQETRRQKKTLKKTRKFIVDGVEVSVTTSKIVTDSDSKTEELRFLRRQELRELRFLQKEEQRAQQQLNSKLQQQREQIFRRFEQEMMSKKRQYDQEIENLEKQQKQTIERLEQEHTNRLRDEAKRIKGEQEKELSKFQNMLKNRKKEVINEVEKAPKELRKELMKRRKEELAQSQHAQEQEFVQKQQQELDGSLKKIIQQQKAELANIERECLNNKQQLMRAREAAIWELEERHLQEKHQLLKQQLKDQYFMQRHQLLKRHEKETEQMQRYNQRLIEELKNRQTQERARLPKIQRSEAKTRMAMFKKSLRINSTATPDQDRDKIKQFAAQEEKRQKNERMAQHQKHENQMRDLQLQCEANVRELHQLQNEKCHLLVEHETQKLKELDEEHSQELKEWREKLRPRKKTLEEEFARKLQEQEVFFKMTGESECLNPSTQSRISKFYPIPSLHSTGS
T4 sequence (P68400 whole entry, the tested form may be a part): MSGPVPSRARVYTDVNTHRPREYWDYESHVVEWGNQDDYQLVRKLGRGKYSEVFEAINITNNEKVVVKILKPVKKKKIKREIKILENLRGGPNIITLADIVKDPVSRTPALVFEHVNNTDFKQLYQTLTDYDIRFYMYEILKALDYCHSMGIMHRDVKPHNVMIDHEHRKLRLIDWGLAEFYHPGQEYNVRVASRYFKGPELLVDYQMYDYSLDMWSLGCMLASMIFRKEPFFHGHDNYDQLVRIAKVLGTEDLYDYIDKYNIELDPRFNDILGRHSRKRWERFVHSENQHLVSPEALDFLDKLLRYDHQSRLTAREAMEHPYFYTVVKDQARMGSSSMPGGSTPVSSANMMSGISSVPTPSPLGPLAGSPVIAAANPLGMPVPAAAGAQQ
T6 sequence (P34947 whole entry, the tested form may be a part): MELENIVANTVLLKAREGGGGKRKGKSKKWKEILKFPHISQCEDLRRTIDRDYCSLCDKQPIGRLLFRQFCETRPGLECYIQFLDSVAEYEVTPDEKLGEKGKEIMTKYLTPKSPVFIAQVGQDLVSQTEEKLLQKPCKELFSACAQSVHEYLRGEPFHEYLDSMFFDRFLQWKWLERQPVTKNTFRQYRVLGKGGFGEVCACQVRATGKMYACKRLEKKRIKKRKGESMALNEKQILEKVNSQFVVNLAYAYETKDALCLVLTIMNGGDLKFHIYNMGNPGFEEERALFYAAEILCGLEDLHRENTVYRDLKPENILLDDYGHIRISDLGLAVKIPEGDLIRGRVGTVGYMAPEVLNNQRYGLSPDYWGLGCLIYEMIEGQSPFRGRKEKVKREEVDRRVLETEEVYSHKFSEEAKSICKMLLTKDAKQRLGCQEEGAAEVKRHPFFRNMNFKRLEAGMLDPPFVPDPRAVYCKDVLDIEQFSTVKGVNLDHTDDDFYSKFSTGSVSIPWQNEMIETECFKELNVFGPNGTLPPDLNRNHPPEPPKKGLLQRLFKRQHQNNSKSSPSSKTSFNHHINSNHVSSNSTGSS
T1 sequence (Q9Y243 whole entry, the tested form may be a part): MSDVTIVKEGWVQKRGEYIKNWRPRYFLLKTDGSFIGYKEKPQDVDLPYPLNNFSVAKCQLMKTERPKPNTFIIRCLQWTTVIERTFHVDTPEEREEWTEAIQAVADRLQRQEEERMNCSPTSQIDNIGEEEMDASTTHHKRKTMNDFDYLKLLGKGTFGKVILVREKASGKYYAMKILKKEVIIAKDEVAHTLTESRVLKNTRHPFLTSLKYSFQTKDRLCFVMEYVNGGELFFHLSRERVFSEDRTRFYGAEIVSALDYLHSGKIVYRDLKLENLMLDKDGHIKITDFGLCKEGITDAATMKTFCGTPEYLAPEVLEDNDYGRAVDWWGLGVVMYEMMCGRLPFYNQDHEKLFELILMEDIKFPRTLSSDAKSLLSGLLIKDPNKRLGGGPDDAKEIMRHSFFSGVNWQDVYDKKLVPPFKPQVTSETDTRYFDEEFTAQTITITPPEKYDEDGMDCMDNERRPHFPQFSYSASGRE

On to `COc1ccc(NC(=O)C2(C(=O)Nc3cccc(-c4c[nH]c5ncnc(N6CCOCC6)c45)c3)CC2)cc1` [Compound 16], for which the dTm in test [1] is listed as 0.25 K; in test [2], 0.60 K; in test [3] it was -1.03 K; in test [4], 1.00 K; in test [5], 1.57 K; in test [6] it was 0.44 K.
On to `O=C(Nc1cccc(-c2c[nH]c3ncnc(N4CCOCC4)c23)c1)C1(C(=O)Nc2ccc(F)c(F)c2)CC1` [Compound 17], for which the dTm is reported as 0.71 K in test [1]; 1.14 K in test [2]; 1.34 K in test [3]; -0.81 K in test [4]; 7.02 K in test [5]; 0.75 K in test [6].
As for `O=C(Nc1cccc(-c2c[nH]c3ncnc(N4CCOCC4)c23)c1)C1(C(=O)Nc2ccc(F)c(Cl)c2)CC1` [Compound 18], the dTm in test [1] is reported as 1.04 K; in test [2] it was 1.71 K; in test [3], 1.59 K; in test [4], -0.75 K; in test [5], 8.41 K; in test [6], 0.43 K.
Take `O=C(Nc1cccc(-c2c[nH]c3ncnc(N4CCOCC4)c23)c1)C1(C(=O)Nc2ccc(F)c(Br)c2)CC1` [Compound 19]: the dTm in test [1] is reported as -0.15 K; in test [2] it was 1.65 K; in test [3] it was 2.86 K; in test [4] it was 0.10 K; in test [5] it was 8.05 K; in test [6], 0.28 K.
Consider `Cc1cc(NC(=O)C2(C(=O)Nc3cccc(-c4c[nH]c5ncnc(N6CCOCC6)c45)c3)CC2)ccc1F` [Compound 20], for which the dTm in test [1] is 0.62 K; in test [2], 1.43 K; in test [3], 2.15 K; in test [4], -0.56 K; in test [5], 8.94 K; in test [6], 1.05 K.
For the compound `COc1cc(NC(=O)C2(C(=O)Nc3cccc(-c4c[nH]c5ncnc(N6CCOCC6)c45)c3)CC2)ccc1F` [Compound 21], the dTm in test [1] amounted to 0.58 K; in test [2], 0.93 K; in test [3], 0.18 K; in test [4], 1.43 K; in test [5], 6.44 K; in test [6], 0.34 K.
`CC(C)(C)c1cccc(NC(=O)C2(C(=O)Nc3cccc(-c4c[nH]c5ncnc(N6CCOCC6)c45)c3)CC2)c1` [Compound 22]: the dTm is on record as 0.15 K in test [1]; 0.81 K in test [2]; 2.25 K in test [3]; -1.17 K in test [4]; 5.75 K in test [5]; -0.26 K in test [6].
For `O=C(Nc1cccc(-c2c[nH]c3ncnc(N4CCOCC4)c23)c1)C1(C(=O)Nc2ccc(F)cc2F)CC1` [Compound 23], the dTm in test [1] is recorded as 0.68 K; in test [2], 0.51 K; in test [3], 0.52 K; in test [4] it was -0.33 K; in test [5], 4.42 K; in test [6] it was -0.45 K.
Regarding `Cc1cc(F)ccc1NC(=O)C1(C(=O)Nc2cccc(-c3c[nH]c4ncnc(N5CCOCC5)c34)c2)CC1` [Compound 24], the dTm in test [1] is 0.50 K; in test [2], 0.44 K; in test [3] it was 0.66 K; in test [4], 0.65 K; in test [5] it was 3.45 K; in test [6], 0.16 K.
Consider `O=C(Nc1cccc(-c2c[nH]c3ncnc(N4CCOCC4)c23)c1)C1(C(=O)Nc2cc(Br)c(F)cc2F)CC1` [Compound 25], for which the dTm in test [1] was -0.48 K; in test [2], 1.24 K; in test [3] it was 1.84 K; in test [4], -3.68 K; in test [5], 1.44 K; in test [6], 0.32 K.
In the case of `O=C(Nc1cccc(-c2c[nH]c3ncnc(N4CCOCC4)c23)c1)C1(C(=O)Nc2ccc(F)c(Br)c2F)CC1` [Compound 26], the dTm is -0.00683 K in test [1]; 1.02 K in test [2]; 1.09 K in test [3]; -1.70 K in test [4]; 2.31 K in test [5]; 0.25 K in test [6].
For `O=C(Nc1cc(F)cc(Br)c1)C1(C(=O)Nc2cccc(-c3c[nH]c4ncnc(N5CCOCC5)c34)c2)CC1` [Compound 27], the dTm is given as 0.53 K in test [1]; 1.05 K in test [2]; 0.27 K in test [3]; -1.92 K in test [4]; 3.29 K in test [5]; 0.40 K in test [6].
For the compound `CC(C)(C)c1cc(NC(=O)Nc2cccc(-c3c[nH]c4ncnc(N5CCOCC5)c34)c2)n(-c2ccc3ncccc3c2)n1` [Compound 28], the dTm in test [1] turned out to be 0.49 K; in test [2], 1.63 K; in test [3], 5.15 K; in test [4], 0.00 K; in test [5] it was 13.85 K; in test [6], 0.98 K.
On to `Cc1ccc(-n2nc(C(C)(C)C)cc2NC(=O)Nc2cccc(-c3c[nH]c4ncnc(N5CCOCC5)c34)c2)cc1` [Compound 29], for which the dTm in test [1] was 0.14 K; in test [2] it was -0.55 K; in test [3] it was 2.79 K; in test [4], 0.69 K; in test [5], 13.65 K; in test [6], 0.00 K.
Consider `Cc1ccc(-n2nc(C(C)(C)C)cc2NC(=O)Nc2cccc(-c3c[nH]c4nc(Cl)nc(N5CCOCC5)c34)c2)cc1` [Compound 30], for which the dTm in test [1] is recorded as -0.99 K; in test [2], -1.13 K; in test [3], -1.91 K; in test [4] it was 0.59 K; in test [5] it was 8.39 K; in test [6], -3.24 K.
In the case of `CC(=O)N1CCN(c2nc(Cl)nc3[nH]cc(-c4cccc(NC(=O)Nc5cc(C(C)(C)C)nn5-c5ccc(C)cc5)c4)c23)CC1` [Compound 31], the dTm in test [1] is -0.49 K; in test [2], -1.18 K; in test [3], 0.10 K; in test [4], 0.26 K; in test [5] it was 9.23 K; in test [6], -1.15 K.
In the case of `CCSc1nc(NC)c2c(-c3cccc(NC(=O)Nc4cc(C(C)(C)C)nn4-c4ccc(C)cc4)c3)c[nH]c2n1` [Compound 32], the dTm in test [1] is given as 0.30 K; in test [2], -0.68 K; in test [3] it was 0.0365 K; in test [4], 0.23 K; in test [5] it was 5.13 K; in test [6] it was -0.61 K.
Take `COc1cc(C(=O)N2CCOCC2)c(F)cc1Nc1nc(N(C)C)c2c(Cl)c[nH]c2n1` [Compound 36]: the dTm in test [1] is reported as 0.29 K; in test [2], -1.69 K; in test [3], -0.62 K; in test [4], 2.03 K; in test [5] it was -1.49 K; in test [6] it was 0.46 K.
Turning to `COc1cc(S(C)(=O)=O)ccc1Nc1nc(N(C)C)c2c(Cl)c[nH]c2n1` [Compound 37], the dTm in test [1] is given as -0.25 K; in test [2] it was -0.55 K; in test [3], -0.61 K; in test [4], 0.51 K; in test [5], -0.88 K; in test [6], 1.16 K.
